Patent US6773708B1, “Use of xanthophylls, astaxanthin e.g., for treatment of autoimmune diseases, chronic viral and intracellular bacterial infections” (AstaReal AB, priority 1999, dated 2004)

Test system: Lichen Ruber Planus
Assay: Case study: patient with Lichen ruber planus
Format: in vivo, human
Settings: Patient 4; several years, orally and by injection to local inflammation areas
Experimental: During the last five years reports have been received from patients taking the commercial dietary supplement capsules of the algal meal of Haematococcus pluvialis, Astaxin®, containing 4 mg astaxanthin. The daily doses recommended as an antioxidant is one capsule per day.
Patient 4. […] The symptoms of the disease were inter alia open wounds which had not healed […] had been treated with anti-inflammatory agents, such as cortisone, for several years, orally and also by injection directly to the local inflammation areas. […] They started to take 4 capsules of Astaxin per day, and after some weeks visible alleviation of the symptoms started to show up. […] During this period, the patient […] phased out the cortisone treatment. The dose of Astaxin was lowered to 2 capsules per day when they were asymtomatic. However, the symptoms returned in connection with a common cold.

C[C@]12CCC(=O)C=C1CC[C@@H]1[C@@H]2C(=O)C[C@@]2(C)[C@H]1CC[C@]2(O)C(=O)CO [cortisone]
result of previous anti-inflammatory treatment: has not led to any result
